{"source": "paper PMC8237267", "about": "(Journal of Medicinal Chemistry, 2021)", "assay": "In vitro stability in mouse hepatocytes", "format": "in vitro ADME", "procedure": "The inhibitors (and controls) were formulated to concentrations of 100 μM in 50% acetonitrile/50% water. The medium (William’s E Medium supplemented with GlutaMAX) and hepatocyte thawing medium were allowed to reach room temperature and the hepatocytes and thawing medium and centrifuged at 100 g for 10 min. The supernatant was removed, and hepatocytes resuspended in the incubation medium (∼1.5 × 10^6 cells/mL). The cells were diluted to 0.5 × 10^6 viable cells/mL. A volume of 198 μL of hepatocytes was transferred to a 96-well noncoated plate and incubated at 37 °C for 10 min. Following this, 2 μL of the 100 μM test compounds or positive control was transferred into respective wells to start the reaction. At different time points (0, 15, 30, 60, 90, and 120 min), 25 μL aliquots were mixed with 6 volumes (150 μL) of acetonitrile containing internal standard, IS (100 nM alprazolam, 200 nM labetalol, 200 nM caffeine, and 200 nM diclofenac) to terminate the reaction. Samples were vortexed for 5 min and centrifuged for 45 min at 3220g, diluted by ultrapure water, followed by LC/MS/MS analysis. The in vitro half-life (T1/2) was determined by regression analysis of the percent parent disappearance vs time curve (T1/2 = 0.693/k) using Microsoft Excel.", "key": {"[1]": {"settings": "read-out: Stability in mouse hepatocytes t1/2"}}}
{"smiles": "O=C(NO)c1ccc(CN(C2CC2)S(=O)(=O)c2cc(F)c(F)c(F)c2F)cc1", "note": "[Compound 14, 4-(((N-Cyclopropyl-2,3,4,5-tetrafluorophenyl)sulfonamido)methyl)-N-hydroxybenzamide]", "values": [{"measurement": "hepatocyte CLint at 2 h, 1 μM", "result": "37.6 ± 0.6", "unit": "µL/min/1e6 cells"}, {"measurement": "half-life at 1 μM", "setting": "[1]", "result": 37, "unit": "min"}, {"measurement": "half-life at 2 h, 1 μM", "setting": "[1]", "result": "36.9 ± 0.59", "unit": "min"}]}
